Source: article PMC7470102, “Synthesis, anticancer evaluation and molecular docking studies of new benzimidazole- 1,3,4-oxadiazole derivatives as human topoisomerase types I poison” (Journal of Enzyme Inhibition and Medicinal Chemistry, 2020)
Read-outs that look alike come from different tables or passages of the source.

Experiments:
[1] = tested on: A549 (lung carcinoma cell line); assay: MTT cytotoxicity assay, A549; format: cell-based; settings: read-out: IC50 against A549
Experimental: (§1) The anticancer activity of compounds 5a–5o were screened according to the MTT assays. The MTT assays were performed as previously described[32]^,[33]. Anticancer activity of final compounds was assessed against five different cancer cell lines A549 (lung carcinoma cell line), HeLa (cervical cell line), MCF-7 (human breast adenocarcinoma cell line), HepG2 (human liver carcinoma cell line) and C6 (rat glioma cell line) cell lines as well as NIH3T3 (mouse embryo fibroblast cell line). Doxorubicin and Hoechst 33342 were used as the reference drugs in the MTT assays.
(§2) The benzimidazole-1,3,4-oxadiazole derivatives (5a-5o) were tested their cytotoxic effects in vitro using five cancer cell line A549 (lung carcinoma cell line), HeLa (cervical cell line), MCF-7 (human breast adenocarcinoma cell line), HepG2 (human liver carcinoma cell line) and C6 (rat glioma cell line) cell lines as well as NIH3T3 (mouse embryo fibroblast cell line). Doxorubicin and Hoechst 33342 were used for this study as a reference drugs.

[2] = tested on: MCF-7 (human breast adenocarcinoma cell line); assay: MTT cytotoxicity assay, MCF-7; format: cell-based; settings: read-out: IC50 against MCF-7
Experimental: as §1, §2

[3] = tested on: C6 (rat glioma cell line); assay: MTT cytotoxicity assay, C6; format: cell-based; settings: read-out: IC50 against C6
Experimental: as §1, §2

[4] = tested on: HepG2 (human liver carcinoma cell line); assay: MTT cytotoxicity assay, HepG2; format: cell-based; settings: read-out: IC50 against HepG2
Experimental: as §1, §2

[5] = tested on: HeLa (cervical cell line); assay: MTT cytotoxicity assay, HeLa; format: cell-based; settings: read-out: IC50 against HeLa
Experimental: as §1, §2

[6] = tested on: NIH3T3 (mouse embryo fibroblast cell line); assay: MTT cytotoxicity assay, NIH3T3 healthy cells; format: cell-based; settings: read-out: IC50 against NIH3T3
Experimental: The anticancer activity of compounds 5a–5o were screened according to the MTT assays. The MTT assays were performed as previously described[32]^,[33]. Anticancer activity of final compounds was assessed against five different cancer cell lines A549 (lung carcinoma cell line), HeLa (cervical cell line), MCF-7 (human breast adenocarcinoma cell line), HepG2 (human liver carcinoma cell line) and C6 (rat glioma cell line) cell lines as well as NIH3T3 (mouse embryo fibroblast cell line). Doxorubicin and Hoechst 33342 were used as the reference drugs in the MTT assays. It is crucial that an anticancer agent affects the cancer cell line but having minimal or no side-effect on healthy cells. For this purpose, the cytotoxic effects of the active compounds on the NIH3T3 cell line were investigated (Table 2).

HeLa cells = assay: DNA synthesis inhibition assay (BrdU), HeLa; format: cell-based; settings: 48 h, 5b 0.698, 5l 0.224, 5n 0.205, doxorubicin 14.280 µg/mL
Experimental: (§3) The BrdU cell proliferation method was performed to analyse the effects of the active compounds on proliferation of cancer cells. Cancer cells were seeded into the 96-well plates at a density of 1 × 10^4 cells. Compounds were added into the each well at three different concentrations (IC50/2, IC50 and 2xIC50) and the plates were incubated for 24 h. At the end of the incubation period, BrdU solution was added and cells were reincubated for 2 h at 37 °C. Anti-BrdU-POD ([…]) was added and the mixture was incubated for 90 min. Microplates were washed with PBS for three times. After adding substrate solution, the mixture was incubated for 15 min. OD of the wells were determined at 492 nm. Proliferation of control cells was assessed as 100% and growth inhibition % of cells, treated with test compounds and […] were calculated.
(§4) According to the MTT assay, compound 5n for A549 cell line; compounds 5a, 5d, 5e, 5o for MCF-7 cell line; compound 5k for C6 cell line; compound 5a for HepG2 cell line; compounds 5b, 5l and 5n for HeLa cell line were selected for the DNA synthesis inhibition assay. A549, C6, MCF-7, HepG2 and HeLa cells were incubated with three different concentrations (IC50/2, IC50, and […]) of the compounds for 24 and 48 h time periods. […] Doxorubicin was used as positive control.

HeLa cell line = assay: Flow cytometric analysis (Annexin V/PI), HeLa; format: cell-based
Experimental: (§5) Death pathway of the carcinogenic cell lines was detected by Annexin V-FITC Apoptosis Detection Kit (BD, Pharmingen) as reported previously described. […] FCS Express software was used to display the percent of normal and apoptotic cells at different stages. […] The experiments were carried out in triplicates.
(§6) Annexin V/PI staining on tested cancer cells treated with the active compounds was performed to investigate induction of apoptosis. […] According to the MTT assay, compound 5n for A549 cell line; compounds 5a, 5d, 5e, 5o for MCF-7 cell line; compound 5k for C6 cell line; compound 5a for HepG2 cell line; compounds 5b, 5l and 5n for HeLa cell line were selected for the flow cytometric analysis. Furthermore, flow cytometry studies were performed for reference drug doxorubicin. Flow cytometric analysis diagrams of tested compounds and doxorubicin at IC50/2, IC50, and 2xIC50 concentrations on cancer cells were presented in Figures 7–11.

Topoisomerase I = biological target: T1, Topoisomerase I (Homo sapiens, UniProt P11387); assay: DNA topoisomerase I assay (relaxation of supercoiled plasmid DNA, agarose gel); format: biochemical; settings: agarose gel electrophoresis, camptothecin positive control, Figure 12
T1 construct: purchased TopoGen TG1018-2
T1 sequence (P11387 1-765): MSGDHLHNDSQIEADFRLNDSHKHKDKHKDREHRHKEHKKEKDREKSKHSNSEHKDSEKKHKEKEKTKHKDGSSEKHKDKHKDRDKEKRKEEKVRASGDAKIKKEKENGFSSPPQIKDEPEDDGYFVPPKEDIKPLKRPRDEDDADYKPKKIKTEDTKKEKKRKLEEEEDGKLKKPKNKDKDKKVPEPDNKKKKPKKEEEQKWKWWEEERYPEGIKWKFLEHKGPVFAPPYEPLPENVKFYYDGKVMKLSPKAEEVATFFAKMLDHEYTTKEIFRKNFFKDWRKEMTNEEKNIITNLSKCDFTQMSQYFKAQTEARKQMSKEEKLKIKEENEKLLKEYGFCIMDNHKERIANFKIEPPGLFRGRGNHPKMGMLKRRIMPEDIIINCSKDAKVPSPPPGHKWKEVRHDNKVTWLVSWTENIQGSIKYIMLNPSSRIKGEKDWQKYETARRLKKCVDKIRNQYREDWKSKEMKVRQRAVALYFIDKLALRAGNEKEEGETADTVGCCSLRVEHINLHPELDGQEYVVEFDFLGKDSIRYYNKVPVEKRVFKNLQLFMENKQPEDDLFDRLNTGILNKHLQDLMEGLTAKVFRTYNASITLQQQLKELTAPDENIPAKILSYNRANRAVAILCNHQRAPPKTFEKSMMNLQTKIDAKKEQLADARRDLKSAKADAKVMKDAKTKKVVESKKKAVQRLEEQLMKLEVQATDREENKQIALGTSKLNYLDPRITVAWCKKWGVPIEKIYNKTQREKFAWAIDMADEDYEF
Experimental: The topoisomerase I inhibition activities of final compounds were measured as relaxation of supercoiled plasmid DNA using agarose gel electrophoresis and camptothecin was used as a positive control. The assay was carried out in a final volume of 20 µl reaction volume containing 2 µl of 10xTGS Buffer, 6 µl water, 2 µl supercoiled plasmid DNA, 2 µl test compound, 2 µl of Top1, 2 ul 10% SDS, 2 µl proteinase K, 2 µl DNA loading dye. After incubation of reaction mixtures at 37 °C for 30 min, electrophoresis was done on a 1% agarose gel at a potential 50 V for 75 min using 1xTAE buffer.
To determine whether the DNA intercalation properties of compounds 5a, 5b, 5d, 5e, 5k, 5l, 5n and 5o might result in Topo I inhibition, agarose gel electrophores is assay was performed to evaluate the Topo I inhibitory activity of them via agarose-gel electrophoresis and CPT was used as the positive control. The TopoGEN Topoisomerase I Drug Screening Kit were optimised and implemented to accomplish this goal.
In a previous studies, it was said that the compounds poisoning topoisomerase caused the formation of nick bands in such gel appearances, while the formation of Supercoiled bands was said to be caused by catalytic inhibitors that bound to either DNA or enzyme[40]^,[41].

HepG2 cells = assay: DNA synthesis inhibition assay (BrdU), HepG2; format: cell-based, human; settings: 5a at 5.695 µg/mL, doxorubicin at 16.482 µg/mL
Experimental: as §3, §4

MCF-7 cell line = assay: Flow cytometric analysis (Annexin V/PI), MCF-7; format: cell-based, human; settings: MCF-7 cells
Experimental: as §5, §6

HepG2 cell line = assay: Flow cytometric analysis (Annexin V/PI), HepG2; format: cell-based, human; settings: at IC50 concentrations, 24 h incubation
Experimental: as §5, §6

A549 cells = assay: DNA synthesis inhibition assay (BrdU), A549; format: cell-based; settings: 48 h
Experimental: as §3, §4

A549 cell line = assay: Flow cytometric analysis (Annexin V/PI), A549; format: cell-based; settings: at IC50 concentrations
Experimental: as §5, §6

MCF7 cells = assay: DNA synthesis inhibition assay (BrdU), MCF7; format: cell-based, human; settings: 48 h, 5e at 7.318 µg/mL, doxorubicin at 10.525 µg/mL
Experimental: as §3, §4

C6 cell line = assay: Flow cytometric analysis (Annexin V/PI), C6; format: cell-based, rat; settings: at IC50 concentrations
Experimental: as §5, §6

[7] = Homo sapiens, MCF7, MCF-7 cell line
[8] = 5n at 5.39 µg/mL, doxorubicin at 6.21 µg/mL
[9] = 5n at 7.39 µg/mL, doxorubicin at 12.42 µg/mL
[10] = 5n at 14.77 µg/mL, doxorubicin at 24.84 µg/mL

SMILES	Topo I inhibition activity (Topoisomerase I)	IC50 ([1]; Homo sapiens, A549, MTT assay)	IC50 [2, 7]	IC50 ([3]; Rattus norvegicus)	IC50 ([4]; Homo sapiens)	IC50 ([5]; Homo sapiens)	IC50 ([6]; Mus musculus)	% DNA synthesis inhibition (HeLa cells)	percentage of apoptotic cells (HeLa cell line)	% DNA synthesis inhibition (HepG2 cells; 24 h)	% DNA synthesis inhibition (HepG2 cells; 48 h)	percentage of apoptosis (early + late apoptotic cells) (MCF-7 cell line)	percentage of apoptotic cells (HepG2 cell line)	% DNA synthesis inhibition (A549 cells; [8])	% DNA synthesis inhibition (A549 cells; [9])	% DNA synthesis inhibition (A549 cells; [10])	percentage of apoptotic cells (A549 cell line)	% DNA synthesis inhibition (MCF7 cells)	other results
CCOc1ccc(-c2nc3ccc(-c4nnc(SCC(=O)N5CCN(CC)CC5)o4)cc3[nH]2)cc1 [5l, 2-((5-(2-(4-Ethoxyphenyl)-1H-benzo[d]imidazol-6-yl)-1,3,4-oxadiazol-2-yl)thio)-1–(4-ethyl-piperazin-1-yl)-ethane-1-on]	potent topo I inhibition activity	31 ± 1.53 µM	≥ 100 µM	≥ 100 µM	≥ 100 µM	0.224 ± 0.011 µM	113 ± 5.47 µM	56.01%	8.6%										
CCOc1ccc(-c2nc3ccc(-c4nnc(SCC(=O)N5CCN(c6ccccn6)CC5)o4)cc3[nH]2)cc1 [5n]	potent topo I inhibition activity							57.65%	15.2%					66.00%	68.25%	78.17%	13%		IC50 ([1]; MTT assay): 7.39 ± 0.325 µM; IC50 ([2]; MCF-7 cell line): ≥ 100 µM; IC50 [3]: ≥ 100 µM; IC50 [4]: ≥ 100 µM; IC50 [5]: 0.205 ± 0.01 µM; IC50 [6]: 189 ± 8.73 µM
COc1cccc2c1C(=O)c1c(O)c3c(c(O)c1C2=O)C[C@@](O)(C(=O)CO)C[C@@H]3O[C@H]1C[C@H](N)[C@H](O)[C@H](C)O1 [Dox., doxorubicin, reference compound]		12.4 ± 0.521 µM	10.5 ± 0.472 µM	28.7 ± 1.23 µM	16.5 ± 0.804 µM	14.3 ± 0.704 µM	1111 ± 8.25 µM			42.80%	74.22%	12.7%	9.4%	62.78%	73.43%	81.22%	19.2%	84.60%	inhibition at 14.28 µg/mL (HeLa cells; Homo sapiens): 66.5%; percentage of apoptotic cells (C6 cell line): 13.7%

Further lines, with some results ahead:

Topo I inhibition activity (Topoisomerase I)	SMILES	IC50 ([1]; Homo sapiens, A549, MTT assay)	IC50 [2, 7]	IC50 ([3]; Rattus norvegicus)	IC50 ([4]; Homo sapiens)	IC50 ([5]; Homo sapiens)	IC50 ([6]; Mus musculus)	% DNA synthesis inhibition (HeLa cells)	percentage of apoptotic cells (HeLa cell line)	% DNA synthesis inhibition (HepG2 cells; 24 h)	% DNA synthesis inhibition (HepG2 cells; 48 h)	percentage of apoptosis (early + late apoptotic cells) (MCF-7 cell line)	percentage of apoptotic cells (HepG2 cell line)	% DNA synthesis inhibition (A549 cells; [8])	% DNA synthesis inhibition (A549 cells; [9])	% DNA synthesis inhibition (A549 cells; [10])	percentage of apoptotic cells (A549 cell line)	% DNA synthesis inhibition (MCF7 cells)	other results
potent topo I inhibition activity	CN1CCN(C(=O)CSc2nnc(-c3ccc4nc(-c5ccc(O)cc5)[nH]c4c3)o2)CC1 [5a, 2-((5–(2-(4-Hydroxyphenyl)-1H-benzo[d]imidazol-6-yl)-1,3,4-oxadiazol-2-yl)thio)-1–(4-methyl-piperazin-1-yl) -ethane-1-on]	43.3 ± 1.79 µM	5.7 ± 0.254 µM	15.6 ± 0.615 µM	5.7 ± 0.283 µM	14 ± 0.65 µM	39.1 ± 1.94 µM			60.89%	72.05%	15.4%	13.2%						
potent topo I inhibition activity	CCN1CCN(C(=O)CSc2nnc(-c3ccc4nc(-c5ccc(O)cc5)[nH]c4c3)o2)CC1 [5b, 2-((5–(2-(4-Hydroxyphenyl)-1H-benzo[d]imidazol-6-yl)-1,3,4-oxadiazol-2-yl)thio)-1–(4-ethyl-piperazin-1-yl) -ethane-1-on]	≥ 100 µM	≥ 100 µM	≥ 100 µM	≥ 100 µM	0.698 ± 0.032 µM	944.4 ± 7.62 µM	49.70%											
potent topo I inhibition activity	O=C(CSc1nnc(-c2ccc3nc(-c4ccc(O)cc4)[nH]c3c2)o1)N1CCN(c2ncccn2)CC1 [5e, 2-((5–(2-(4-Hydroxyphenyl)-1H-benzo[d]imidazol-6-yl)-1,3,4-oxadiazol-2-yl)thio)-1-(4-(pyrimidine-2-yl)-piperazin-1-yl)-ethane-1-on]		7.32 ± 0.352 µM	≥ 100 µM	≥ 100 µM	≥ 100 µM	54 ± 2.68 µM					13.1%						93.81%	
